What was measured:
Assay in all cases: In vitro percent disease control (radii of spore growth on agar)
Type in all cases: cell-based
Fusarium moniliforme = system: Fusarium moniliforme
How it was run: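 Compounds in 10% acetone/water at 100 and 50 ppm were mixed into potato-sucrose-agar, with Fusarium moniliforme spotted centrally. After several days' incubation, percent disease control was derived from radii of spore growth.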

Phytophthora capsisi = conditions: Phytophthora, read-out: % controlled, Phy ca.
How it was run: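 Compounds dissolved in acetone (10% of final volume) then water at 100 ppm and 50 ppm, mixed into potato-sucrose-agar; fungus spotted at plate centre and incubated several days. Percent disease control derived from radii of spore growth.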

Physalospora baccae = conditions: read-out: % controlled, Phy ba.
How it was run: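 Compounds at 100 and 50 ppm (10% acetone) mixed into potato-sucrose-agar, fungus spotted centrally and grown several days in a growth room. Percent disease control derived from radii of spore growth.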

Rhizoctonia solani = conditions: Rhizoctonia solani, read-out: % controlled, Rhy. so.
How it was run: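 Test compounds at 100 ppm and 50 ppm (acetone 10% of final volume, then water) were mixed into potato-sucrose-agar, and the fungus was spotted at the dish centre. Dishes were incubated several days in a growth room. Percent disease control was derived from the radii of spore growth.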

Glomerella cingulata = conditions: Colletotrichum gloeosporioides, read-out: % controlled, Glo.
How it was run: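 Compounds were dissolved in acetone (10% of final volume) plus water at 100 ppm and 50 ppm and mixed into potato-sucrose agar. G. cingulata was spotted centrally and incubated for several days in a growth room. Percent disease control was derived from the radii of spore growth.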

[1] = system: Botryosphaeria dothidea Macrophoma sp.; conditions: Botryosphaeria dothidea, read-out: % controlled, Bo.do (Ma.)
How it was run: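 Compounds (100 and 50 ppm, 10% acetone in water) were mixed into potato-sucrose-agar and the fungus was spotted centrally, then incubated several days in a growth room. Percent disease control came from radii of spore growth.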

Pyricalaria oryzae = conditions: for inhibition of growth at 50 ppm: read-out: % controlled, Py. or., 50 ppm; for inhibition of growth at 100 ppm: read-out: % controlled, Py. or., 100 ppm
How it was run: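 Compounds at 100 ppm and 50 ppm (10% acetone in water) mixed into potato-sucrose-agar, P. oryzae spotted centrally and incubated several days. Percent disease control derived from radii of spore growth.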

Alternaria mali = conditions: Alternaria mali, read-out: % controlled, Al.
How it was run: (§1)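 Compounds in acetone (10% of final volume) diluted with water to 100 and 50 ppm, then mixed into potato-sucrose-agar with each fungus spotted centrally. Incubated several days in a growth room; percent disease control derived from radii of spore growth.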

Rhizopus sp. = conditions: Rhizopus, read-out: % controlled, Rhi. sp.
How it was run: as §1

Botry tris cinerea = conditions: read-out: % controlled, Bo ci.
How it was run: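 Compounds at 100 and 50 ppm (acetone 10% of final volume, rest water) mixed into potato-sucrose agar; Botrytis cinerea spotted at dish centre. After several days' incubation, percent disease control calculated from radii of spore growth.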

SMILES	% controlled, Fu. mo. (Fusarium moniliforme; 50 ppm)	% controlled, Fu. mo. (Fusarium moniliforme; 100 ppm)	inhibition of growth at 50 ppm (Phytophthora capsisi)	inhibition of growth at 100 ppm (Phytophthora capsisi)	inhibition of growth at 50 ppm (Physalospora baccae)	inhibition of growth at 100 ppm (Physalospora baccae)	inhibition of growth at 50 ppm (Rhizoctonia solani)	inhibition of growth at 100 ppm (Rhizoctonia solani)	inhibition of growth at 50 ppm (Glomerella cingulata)	inhibition of growth at 100 ppm (Glomerella cingulata)	inhibition of growth at 50 ppm [1]	inhibition of growth at 100 ppm [1]	inhibition of growth at 50 ppm (Pyricalaria oryzae)	inhibition of growth at 100 ppm (Pyricalaria oryzae)	inhibition of growth at 50 ppm (Alternaria mali)	inhibition of growth at 100 ppm (Alternaria mali)	inhibition of growth at 50 ppm (Rhizopus sp.)	inhibition of growth at 100 ppm (Rhizopus sp.)	inhibition of growth at 50 ppm (Botry tris cinerea)	inhibition of growth at 100 ppm (Botry tris cinerea)
C=CC[Si](C)(Cn1cncn1)C[Si](CC=C)(CC=C)c1ccc(F)cc1 (stereo not shown) [6-(4-fluorophenyl)-4-methyl-6-(2-propenyl)-4,6-disila-4-(1H-1,2,4-triazol-1-ylmethyl)-1,8-nonadiene]	60%	60%	55%	60%	90%	95%	96%	96%	82%	85%	79%	90%	100%	100%	78%	90%	56%	58%	90%	95%
C=CC[Si](C)(Cn1cncn1)C[Si](CC=C)(c1ccccc1)c1ccc(F)cc1 (stereo not shown) [6-(4-fluorophenyl)-4-methyl-6-phenyl-4,6-disila-4-(1H-1,2,4-triazol-1-ylmethyl)-1,8-nonadiene]	60%	66%	65%	70%	82%	82%	96%	96%	80%	85%	79%	79%	90%	90%	55%	92%	50%	50%	60%	70%
